Assay results from patent US7608640B2, “Glycine betaine and its use” (priority 2001, dated 2009).
Values joined by “and” are separate entries in the source; they are usually repeats but may differ in a detail not shown here. Identical values can stand only once.

Columns and labels:
[1] = test system: arterial thrombosis induced by laser beam in the mesenteric microcirculation of the rat; assay: Laser-induced thrombosis in the mesenteric microcirculation; assay type: in vivo
Description: A/Principle of Laser-induced Thrombosis (Seiffge D. et al., 1989; Weichter W. et al., 1983).
In this model, lesion of the vascular wall is induced by a laser beam. This beam causes a limited lesion of the vascular endothelium (only 1 to 2 cells are destroyed). This laying bare of the sub-endothelium, which is a thrombogenetic surface, results in the adherence of platelets via […]. This adherence of platelets is followed by the activation thereof. They form pseudopods and secrete the content of their granules. This activation results in the appearance of glycoproteins IIb-IIIa which are necessary for the aggregation of the platelets between them. This lesion is induced in the mesenteric microcirculation of the rat. It is immediately followed by the formation of a thrombus (in a few seconds). This thrombus, which rapidly enlarges under the influence of the flow of blood, embolises before being formed again.
By this manes, the assessment of the effect of glycine betaine was conducted pharmacologically in conjunction with the study of two active molecules used as a reference; namely acetylsalicylic acid and heparin (of low molecular weight). The assessment also involved the activity of glycine betaine in relation to the prothrombotic effects induced by contrasting products.
Male Wistar rats were used for these tests. They weighed between 200 and 250 grams. After an 8-day stabilisation period, the rats were subjected to fasting for 12 hours. They were then anaesthetised, glycine betaine was administered subcutaneously, and the mesentery (laser) or vena cava (stasis) was opened at the end of the experiments.

blood cells = assay: Blood cell counts; assay type: in vivo, rat; details: rat; glycine betaine 5 mg/kg, acetylsalicylic acid 100 mg/kg, heparin 2 mg/kg
[2] = test system: heparin-induced bleeding in rat; assay: Tail cut bleeding test in heparinized rat; assay type: in vivo; details: for IHT (hemorrhage time), Mean / IHT (hemorrhage time), individual rats: Example 35, betaine 10 mg/kg and/or heparin 5 mg/kg s.c. 1 hour prior to testing
Experimental: This example determined the effect of betaine on hemorrhage time in a heparinized rat. Forty male Wistar rats were purchased from Charles River, France and were acclimated for one week prior to testing. Each animal was weighed prior to testing (weights ranged from 225 to 275 g, mean weight=245 g) and the group of 40 rats was further divided into 4 groups of 10 rats each. One group acted as a control group and each rat in this group received a subcutaneous injection of saline 1 hour prior to testing. The second group received a 10 mg/kg subcutaneous injection of betaine 1 hour prior to testing. The third group received a 5 mg/kg subcutaneous injection of heparin 1 hour prior to testing and the last group received a subcutaneous injection consisting of 5 mg/kg heparin plus 10 mg/kg betaine 1 hour prior to testing. The rats were anesthetized by intramuscular injection of Nesdonal (200 mg/kg). The products were then injected subcutaneously in the abdomen one hour before the tail cut induced bleeding test. For the group receiving the combined heparin/betaine (group 4) injections, the heparin and betaine were injected using different syringes at different sites of administration (left and right sides of the abdomen) in order to avoid any direct reactions between the two substances.
The tail of the anaesthetized rat was dipped for 5 minutes in a water bath at 37° C. in order to induce a dilation of the peripheral vessels. The tail was then removed from the water bath and sectioned at 10-15 mm from the extremity. The chronometer was then started. The IHT is defined as the time, in seconds, between the tail section and the end of the hemorrhage or bleeding. The end of hemorrhage is defined as the moment when the last drop of blood is collected from the tail and when no other drop is observed during 180 seconds. The amount of blood was estimated by visual inspection. […] Betaine has no significant effect on bleeding time and combined use of betaine with heparin almost restored the bleeding time to normal, thereby indicating an antidote-like activity of betaine against heparin.
This example investigated the effect of delayed betaine administration on active heparin-induced bleeding (antidote type administration) in a rat. Twelve male Wistar rats were purchased from Charles River, France and were acclimated for one week prior to testing. Each rat was weighed prior to testing (weights ranged from 245-280 g with a mean of 260 g) and the group of twelve was divided into 3 subgroups. Three rats were in the control group which received two saline injections, one at T0, one at T0+45 minutes. Three rats were in the […] group which received one injection of heparin (5 mg/kg) at T0. Six rats were in the antidote group which received a heparin injection (5 mg/kg) at T0, and a betaine injection (10 mg/kg) at T0+45 minutes. […] However, at the end of the bleeding experiments, blood was sampled by intracardiac puncture on Na-citrate (3.8%, 1:10) and plasmas of the collected blood samples were kept at −20° C. for future biological assays. Chemical products were also identical.
This example investigated the effect of delayed betaine administration in an antidote type administration inhibited the bleeding time and volume of blood loss induced by heparin treatment in a rat. Twenty male Wistar rats were purchased from Charles River, France and were acclimated for one week prior to the tests. Each rat was weighed prior to testing (weights ranged from 240-340 g with a mean weight of 275 g) and divided into 2 groups of 10 animals each. One group received an injection of heparin (5 mg/kg) at T0. The second group received a heparin injection (5 mg/kg) at T0, and a betaine injection (10 mg/kg) at T0+30 minutes. Both groups were subjected to a bleeding test at T0+60 minutes. The testing was performed using the previously described methodology with slight modifications. The tails were sectioned at 5-8 mm from the extremity. […]

coagulation factors = assay: Biological balance (Quick time, ACT, fibrinogen, α2AP, AT III); assay type: in vivo, rat
[3] = 5 mg/ml/kg, Group I: injected 1 hour before
[4] = 5 mg/ml/kg, Group II: injected 2 hours before
[5] = 5 mg/ml/kg, Group III: injected 3 hours before
[6] = 5 mg/ml/kg, Group IV: injected 4 hours before
[7] = 24 hours after sub cutaneous 10 mg/kg
[8] = 24 hours after sub cutaneous administration, title 20 mg/kg, table line 10 mg/kg
[9] = rat, after laser firings, glycine betaine 5 mg/kg, acetylsalicylic acid 100 mg/kg, heparin 2 mg/kg
[10] = 5 mg/kg/day, repeated administration on 5 days of treatment
[11] = rat, glycine betaine 5 mg/kg, acetylsalicylic acid 100 mg/kg, heparin 2 mg/kg
[12] = Example 36, heparin 5 mg/kg at T0, betaine 10 mg/kg at T0+45 minutes, bleeding test at T0+75 minutes
[13] = Example 37, heparin 5 mg/kg at T0, betaine 10 mg/kg at T0+30 minutes, test at T0+60 minutes

C[N+](C)(C)CC(=O)O [Glycine betaine]
Duration of embolisation [1, 3]: 0.51 ± 0.5 min
Number of emboles [1, 3]: 1.8 ± 1.44
Number of firings [1, 3]: 3.49 ± 1.07
Duration of embolisation [1, 4]: 0.3 ± 0.23 min
Number of emboles [1, 4]: 1.4 ± 1.18
Number of firings [1, 4]: 3.0 ± 1.5
Duration of embolisation [1, 5]: 1.00 ± 0.5 min
Number of emboles [1, 5]: 1.99 ± 0.4
Number of firings [1, 5]: 2.50 ± 1.25
Duration of embolisation [1, 6]: 1.5 ± 0.6 min
Number of emboles [1, 6]: 2.2 ± 0.69
Number of firings [1, 6]: 2.7 ± 1.0
Embolisation time [1, 7]: 0 ± 0 min
Number of emboles [1, 7]: 1 +/− 0
Number of laser firing [1, 7]: 3.33 +/− 0.57
Embolisation time [1, 8]: 0 ± 0 min
Number of emboles [1, 8]: 0.66 +/− 0.57
Number of laser firing [1, 8]: 3.33 +/− 0.57
Embolisation time ([1]; oral 50 mg/kg, 1 hour): 0 ± 0 min
Number of laser firing ([1]; oral 50 mg/kg, 1 hour): 4 +/− 0
Embolisation time ([1]; oral 50 mg/kg, 6 hours): 1 ± 0 min
Number of emboles ([1]; oral 50 mg/kg, 6 hours): 2.33 +/− 0.57
Number of laser firing ([1]; oral 50 mg/kg, 6 hours): 3.66 +/− 0.57
Embolisation time ([1]; oral 50 mg/kg, 24 hours): 1 ± 0 min
Number of emboles ([1]; oral 50 mg/kg, 24 hours): 2.33 +/− 0.57
Number of laser firing ([1]; oral 50 mg/kg, 24 hours): 2.33 +/− 0.57
Number of emboles ([1]; oral 50 mg/kg, 48 hours): 4.33 +/− 0.57
Duration of embolisation [1, 9]: 1 ± 0 min
Number of emboles or embolies [1, 9]: 2 ± 0
Number of platelets (blood cells): 804.67 ± 20.03 10^9
Number of red corpuscles (blood cells): 6.19 ± 0.25 10^12
Number of white corpuscles (blood cells): 4.43 ± 0.32 10^9
IHT (hemorrhage time), Mean [2]: 169.9 s
IHT (hemorrhage time), individual rats [2]: 166 s and 180 s and 162 s and 173 s and 194 s and 203 s and 159 s and 142 s and 123 s and 197 s
Volume of blood loss by visual inspection ([2]; Example 36, antidote group versus heparin group): significantly reduced
ACT (coagulation factors; [10]): 39.3 ± 2.3 s
Fibrinogen (coagulation factors; [10]): 2.2 ± 0.1 g/L
Quick time (coagulation factors; [10]): 19.8 ± 1.2 s
ACT (Activated cephaline time) (coagulation factors; [11]): 39.9 ± 1.05 s
AT III (Antithrombin III) (coagulation factors; [11]): 89.5 ± 1.37%
Fibrinogen (coagulation factors; [11]): 1.7 ± 0.1 g/L
QT (Quick time) (coagulation factors; [11]): 16.9 ± 1.05 s
α2AP (Alpha,2-antiplasmin) (coagulation factors; [11]): 29.7 ± 0.68%

Heparin
Duration of embolisation [1, 9]: 1 ± 0 min
Number of emboles or embolies [1, 9]: 2.67 ± 0.52
Number of platelets (blood cells): 777.33 ± 6.43 10^9
Number of red corpuscles (blood cells): 6.20 ± 0.20 10^12
Number of white corpuscles (blood cells): 5.80 ± 0.10 10^9
IHT (hemorrhage time), Mean [2]: 690.9 s
IHT (hemorrhage time), individual rats [2]: 679 s and 767 s and 680 s and 734 s and 702 s and 663 s and 735 s and 567 s
Bleeding Time, individual rats [2, 12]: 658 s and 597 s and 533 s
Bleeding time, Mean [2, 12]: 596 s
Bleeding Time, individual rats [2, 13]: 400 s and 345 s and 405 s and 370 s and 290 s and 265 s and 350 s and 300 s and 315 s and 275 s
Bleeding time, Mean [2, 13]: 331.5 s
Volume (blood loss), Mean [2, 13]: 1294 µL
Volume (blood loss), individual rats [2, 13]: 1650 μl and 1300 μl (2×) and 1800 μl and 1380 μl and 1200 μl and 940 μl and 1140 μl and 1130 μl and 1100 μl
ACT (Activated cephaline time) (coagulation factors; [11]): 39.46 ± 1.36 s
AT III (Antithrombin III) (coagulation factors; [11]): 77.66 ± 1.52%
Fibrinogen (coagulation factors; [11]): 2.13 ± 0.25 g/L
QT (Quick time) (coagulation factors; [11]): 29.50 ± 0.52 s
α2AP (Alpha,2-antiplasmin) (coagulation factors; [11]): 29.4 ± 1.01%
